“And” between values parts separate entries of the source, which are not always exact repeats. Identical values can stand only once. Inconclusive results and toxic doses are left out.
System: CD2F1 mice, L1210 leukemia ip, survival T/C
Assay: NCI In Vivo Anticancer Drug Screen. Data for tumor model L1210 Leukemia (intraperitoneal) in CD2F1 (CDF1) mice
Details: higher = longer survival
Summary of the method: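 Activity against a transplanted murine tumor was judged by comparing the compound group with a vehicle group. The outcome in the treated animals was divided by that in the controls.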

[1] = endpoint: mean survival time, dose: 75.0 mg/kg/injection, schedule: Q01DX001 (ip), vehicle: saline
[2] = endpoint: mean survival time, dose: 300.0 mg/kg/injection, schedule: Q01DX001 (ip), vehicle: saline
[3] = endpoint: mean survival time, dose: 100.0 mg/kg/injection, schedule: Q01DX009 (ip), vehicle: saline with Tween-80
[4] = endpoint: mean survival time, dose: 100.0 mg/kg/injection, schedule: Q04DX003 (ip), vehicle: saline with Tween-80
[5] = endpoint: mean survival time, dose: 200.0 mg/kg/injection, schedule: Q01DX009 (ip), vehicle: saline with Tween-80
[6] = endpoint: mean survival time, dose: 200.0 mg/kg/injection, schedule: Q04DX003 (ip), vehicle: saline with Tween-80
[7] = endpoint: mean survival time, dose: 400.0 mg/kg/injection, schedule: Q04DX003 (ip), vehicle: saline with Tween-80
[8] = endpoint: mean survival time, dose: 400.0 mg/kg/injection, schedule: Q01DX009 (ip), vehicle: saline with Tween-80
[9] = endpoint: mean survival time, dose: 100.0 mg/kg/injection, schedule: Q01DX001 (ip), vehicle: saline with Tween-80
[10] = endpoint: mean survival time, dose: 200.0 mg/kg/injection, schedule: Q01DX001 (ip), vehicle: saline with Tween-80

O=C(NC(CSC(c1ccc(Cl)cc1)c1ccc(Cl)cc1)C(=O)O)OCc1ccccc1 (stereo not drawn)
T/C [1]: 91 % of control | T/C [2]: 97 % of control

CCCCOC(=O)c1ccc(NC(=O)Nc2ccccc2Cl)cc1
T/C (endpoint: mean survival time, dose: 50.0 mg/kg/injection, schedule: Q01DX009 (ip), vehicle: saline with Tween-80): 89 % of control | T/C [3]: 86 % of control | T/C [4]: 91 % of control | T/C [5]: 96 % of control | T/C [6]: 100 % of control

OC1c2ccccc2-c2ccc(Cl)cc21 (stereo not drawn)
T/C [4]: 94 % of control | T/C [6]: 86 % of control | T/C [7]: 96 % of control

Nc1ccc(-c2ccc(N)cc2)cc1
T/C [3]: 94 % of control | T/C [4]: 101 % of control | T/C [5]: 90 % of control | T/C [6]: 101 % of control | T/C [8]: 100 % of control | T/C [7]: 96 % of control

Nc1ncc(N)c(N)n1
T/C (endpoint: mean survival time, dose: 250.0 mg/kg/injection, schedule: Q04DX003 (ip), vehicle: saline sonified): 102 % of control | T/C (endpoint: mean survival time, dose: 500.0 mg/kg/injection, schedule: Q04DX003 (ip), vehicle: saline sonified): 98 % of control | T/C (endpoint: mean survival time, dose: 1000.0 mg/kg/injection, schedule: Q04DX003 (ip), vehicle: saline sonified): 103 % of control

CCOP(=O)(OCC)c1ncn(C2OC(CO)C3OC(C)(C)OC32)c1N (stereo not drawn)
T/C (endpoint: mean survival time, dose: 12.5 mg/kg/injection, schedule: Q01DX005 (ip), vehicle: water): 92 % of control | T/C (endpoint: mean survival time, dose: 25.0 mg/kg/injection, schedule: Q01DX005 (ip), vehicle: water): 100 % of control | T/C (endpoint: mean survival time, dose: 50.0 mg/kg/injection, schedule: Q01DX005 (ip), vehicle: water): 96 % of control | T/C (endpoint: mean survival time, dose: 100.0 mg/kg/injection, schedule: Q01DX005 (ip), vehicle: water): 92 % of control | T/C (endpoint: mean survival time, dose: 200.0 mg/kg/injection, schedule: Q01DX005 (ip), vehicle: water): 92 % of control

CCC(C)(C)C1=C(N=[N+]=[N-])C(=O)C(C(C)(C)CC)=C(N=[N+]=[N-])C1=O
T/C (endpoint: mean survival time, dose: 100.0 mg/kg/injection, schedule: Q01DX001 (ip), vehicle: other): 100 % of control | T/C (endpoint: mean survival time, dose: 200.0 mg/kg/injection, schedule: Q01DX001 (ip), vehicle: other): 96 % of control | T/C (endpoint: mean survival time, dose: 400.0 mg/kg/injection, schedule: Q01DX001 (ip), vehicle: other): 103 % of control

O=[N+]([O-])c1cc(Cl)ccc1O
T/C [3]: 93 % of control | T/C [5]: 90 % of control

CC(=O)Oc1cc(N=[N+]=[N-])c(OC(C)=O)cc1C
T/C [9]: 97 % of control | T/C [10]: 93 % of control

CC(C)(C)OC(=O)CCC(NC(=O)OC(C)(C)C)C(=O)O (stereo not drawn)
T/C [4]: 98 % of control | T/C [6]: 93 % of control | T/C [7]: 95 % of control

OC(c1ccccc1)(c1ccccc1)c1ccc(CN2CCCCC2)cc1
T/C (endpoint: mean survival time, dose: 12.5 mg/kg/injection, schedule: Q01DX009 (ip), vehicle: other): 94 % of control | T/C (endpoint: mean survival time, dose: 25.0 mg/kg/injection, schedule: Q01DX009 (ip), vehicle: other): 92 % of control | T/C (endpoint: mean survival time, dose: 50.0 mg/kg/injection, schedule: Q01DX009 (ip), vehicle: other): 86 % of control | T/C (endpoint: mean survival time, dose: 100.0 mg/kg/injection, schedule: Q01DX009 (ip), vehicle: other): 86 % of control | T/C (endpoint: mean survival time, dose: 200.0 mg/kg/injection, schedule: Q01DX009 (ip), vehicle: other): 87 % of control

O=C(COc1ccccc1)NCc1ccc([N+](=O)[O-])cc1
T/C (endpoint: mean survival time, dose: 50.0 mg/kg/injection, schedule: Q01DX001 (ip), vehicle: saline with Tween-80): 96 % of control | T/C [9]: 96 % of control | T/C [10]: 91 % of control

CC(=O)N(CC(=O)O)c1ccccc1
T/C [3]: 98 % of control | T/C [5]: 96 % of control | T/C [8]: 96 % of control

CC(=O)OC1(C)CC(C)C(=O)C(C(O)CC2CC(=O)NC(=O)C2)C1 (stereo not drawn)
T/C (endpoint: mean survival time, dose: 0.03 mg/kg/injection, schedule: Q01DX009 (ip), vehicle: saline): 103 % of control | T/C (endpoint: mean survival time, dose: 0.04 mg/kg/injection, schedule: Q01DX009 (ip), vehicle: saline): 94 % of control | T/C (endpoint: mean survival time, dose: 0.06 mg/kg/injection, schedule: Q01DX009 (ip), vehicle: saline): 105 % of control and 107 % of control | T/C (endpoint: mean survival time, dose: 0.13 mg/kg/injection, schedule: Q01DX009 (ip), vehicle: saline): 114 % of control

CCN(CC)CCCC(C)NCCCCNC(C)CCCN(CC)CC (stereo not drawn)
T/C (endpoint: mean survival time, dose: 12.5 mg/kg/injection, schedule: Q01DX009 (ip), vehicle: water): 90 % of control | T/C (endpoint: mean survival time, dose: 25.0 mg/kg/injection, schedule: Q01DX009 (ip), vehicle: water): 92 % of control

CCOP(=O)(OCC)C1=C(CC)CC1
T/C (endpoint: mean survival time, dose: 75.0 mg/kg/injection, schedule: Q01DX001 (ip), vehicle: other): 98 % of control

C=CC(=O)OCCCS(=O)(=O)[O-].C=CC(=O)OCCCS(=O)(=O)[O-].NC1CCCCC1N.[Pt+4]
T/C (endpoint: median survival time, dose: 3.12 mg/kg/injection, schedule: Q04DX003 (ip), vehicle: saline with Tween-80): 108 % of control | T/C (endpoint: median survival time, dose: 6.25 mg/kg/injection, schedule: Q04DX003 (ip), vehicle: saline with Tween-80): 119 % of control and 109 % of control | T/C (endpoint: median survival time, dose: 12.5 mg/kg/injection, schedule: Q04DX003 (ip), vehicle: saline with Tween-80): 119 % of control and 109 % of control | T/C (endpoint: median survival time, dose: 25.0 mg/kg/injection, schedule: Q04DX003 (ip), vehicle: saline with Tween-80): 113 % of control and 120 % of control | T/C (endpoint: median survival time, dose: 100.0 mg/kg/injection, schedule: Q04DX003 (ip), vehicle: saline with Tween-80): 158 % of control and 168 % of control | T/C (endpoint: median survival time, dose: 200.0 mg/kg/injection, schedule: Q04DX003 (ip), vehicle: saline with Tween-80): 204 % of control and 301 % of control

CN1C2CCC1CC(OC(=O)/C=C/C(=O)OC1CC3CCC(C1)N3C)C2 (stereo not drawn)
T/C [1]: 94 % of control | T/C (endpoint: mean survival time, dose: 150.0 mg/kg/injection, schedule: Q01DX001 (ip), vehicle: saline): 106 % of control | T/C [2]: 94 % of control

CN(C)c1nc(N)nc(-c2ccncc2)n1
T/C (endpoint: mean survival time, dose: 12.0 mg/kg/injection, schedule: Q04DX002 (ip), vehicle: saline): 100 % of control | T/C (endpoint: mean survival time, dose: 24.0 mg/kg/injection, schedule: Q04DX002 (ip), vehicle: saline): 96 % of control | T/C (endpoint: mean survival time, dose: 48.0 mg/kg/injection, schedule: Q04DX002 (ip), vehicle: saline): 92 % of control

CC(=O)[O][Hg][c]1s[c]([Hg][O]C(C)=O)[c]([Hg][O]C(C)=O)[c]1[Hg][O]C(C)=O
T/C (endpoint: mean survival time, dose: 1.5 mg/kg/injection, schedule: Q01DX009 (ip), vehicle: saline sonified): 96 % of control | T/C (endpoint: mean survival time, dose: 3.0 mg/kg/injection, schedule: Q01DX009 (ip), vehicle: saline sonified): 98 % of control | T/C (endpoint: mean survival time, dose: 6.0 mg/kg/injection, schedule: Q01DX009 (ip), vehicle: saline sonified): 106 % of control | T/C (endpoint: mean survival time, dose: 6.25 mg/kg/injection, schedule: Q01DX009 (ip), vehicle: Klucel (hydroxypropylcellulose) (HPC)): 101 % of control | T/C (endpoint: mean survival time, dose: 6.25 mg/kg/injection, schedule: Q04DX003 (ip), vehicle: saline with Tween-80): 104 % of control | T/C (endpoint: mean survival time, dose: 12.5 mg/kg/injection, schedule: Q01DX009 (ip), vehicle: Klucel (hydroxypropylcellulose) (HPC)): 106 % of control | T/C (endpoint: mean survival time, dose: 25.0 mg/kg/injection, schedule: Q01DX009 (ip), vehicle: Klucel (hydroxypropylcellulose) (HPC)): 104 % of control

Nc1[nH]c(=S)[nH]c(=O)c1NC(=O)C1CC1
T/C (endpoint: mean survival time, dose: 100.0 mg/kg/injection, schedule: Q01DX009 (ip), vehicle: saline sonified): 98 % of control | T/C (endpoint: mean survival time, dose: 200.0 mg/kg/injection, schedule: Q01DX009 (ip), vehicle: saline sonified): 92 % of control | T/C (endpoint: mean survival time, dose: 400.0 mg/kg/injection, schedule: Q01DX009 (ip), vehicle: saline sonified): 98 % of control

CC1=CCC(c2ccccc2)NC(=O)C1 (stereo not drawn)
T/C (endpoint: mean survival time, dose: 100.0 mg/kg/injection, schedule: Q04DX002 (ip), vehicle: saline with Tween-80): 96 % of control | T/C (endpoint: mean survival time, dose: 200.0 mg/kg/injection, schedule: Q04DX002 (ip), vehicle: saline with Tween-80): 104 % of control | T/C (endpoint: mean survival time, dose: 400.0 mg/kg/injection, schedule: Q04DX002 (ip), vehicle: saline with Tween-80): 104 % of control

c1ccc2c3c(c4c(c2c1)CN(C1CCCCC1)CO4)OCN(C1CCCCC1)C3
T/C (endpoint: median survival time, dose: 0.19 mg/kg/injection, schedule: Q01DX009 (ip), vehicle: other): 101 % of control | T/C (endpoint: median survival time, dose: 0.38 mg/kg/injection, schedule: Q01DX009 (ip), vehicle: other): 101 % of control | T/C (endpoint: median survival time, dose: 0.75 mg/kg/injection, schedule: Q01DX009 (ip), vehicle: other): 98 % of control | T/C (endpoint: median survival time, dose: 1.5 mg/kg/injection, schedule: Q01DX009 (ip), vehicle: other): 98 % of control

CCOC(=O)COC(CC[P+](c1ccccc1)(c1ccccc1)c1ccccc1)(C(=O)c1ccccc1)c1ccccc1 (stereo not drawn)
T/C (endpoint: mean survival time, dose: 5.0 mg/kg/injection, schedule: Q01DX001 (ip), vehicle: saline with Tween-80): 100 % of control | T/C (endpoint: mean survival time, dose: 6.25 mg/kg/injection, schedule: Q01DX001 (ip), vehicle: saline with Tween-80): 102 % of control | T/C (endpoint: mean survival time, dose: 12.5 mg/kg/injection, schedule: Q01DX001 (ip), vehicle: saline with Tween-80): 97 % of control | T/C (endpoint: mean survival time, dose: 20.0 mg/kg/injection, schedule: Q01DX001 (ip), vehicle: saline with Tween-80): 109 % of control | T/C (endpoint: mean survival time, dose: 25.0 mg/kg/injection, schedule: Q01DX001 (ip), vehicle: saline with Tween-80): 108 % of control

COc1cc2c(cc1OC)NC(=O)CC(=O)N2
T/C [6]: 91 % of control | T/C [7]: 98 % of control

From PubChem BioAssay AID256 (DTP/NCI, 2004)
